Laboratory results: patent US8686028B2, “Substituted benzfurochromenes and related compounds for the prevention and treatment of bone related disorders” (Council of Scientific & Industrial Research, priority 2008, dated 2014)

What was measured:
[1] = system: Calvarial osteoblast cells; test: MTT cell proliferation assay; type: cell-based, rat; conditions: 10^−10 M to 10^−6M, 24 hrs
Description: (§1) Neonatal rat calvarial cell cultures are prepared as described previously (Endocrinology 145:3451) using slight modification. Briefly, for primary osteoblast cell cultures, frontal and parietal bones from Sprague-Dawley rat neonates (1-3 day old) are digested in 0.1% collagenase/0.1% dispase in α-MEM to obtain 5 sequential digests. The second through fifth digests are combined and grown to confluence at 37° C. and 5% CO2 in air in α-MEM, supplemented with 10% fetal bovine serum (FBS), 2 mM glutamine, 100 U/ml penicillin-streptomycin, Non-essential amino acid solution and sodium pyruvate.
MTT [3-(4,5-dimethylthiazol-2-yl)-2,5-diphenyltetrazolium bromide] assay, first described by Mosmann in 1983, is based on the ability of a mitochondrial dehydrogenase enzyme from viable cells to cleave the tetrazolium rings of the pale yellow MTT and form a dark blue formazan crystals which is largely impermeable to cell membranes, thus resulting in its accumulation within healthy cells. Solubilisation of the cells by the addition of a detergent results in the liberation of the crystals which are solubilized. The number of surviving cells is directly proportional to the level of the formazan product created. The color can then be quantified using a simple colorimetric assay. The results can be read on a multiwell scanning spectrophotometer (Mosmann T. Rapid colorimetric assay for cellular growth and survival: application to proliferation and cytotoxicity assays. J Immunol Methods. 1983 Dec. 16; 65(1-2):55-63).
Calvarial osteoblast cells plated at a density of 2.0×10^3 cells/200 ul in 96 wells plates. Cells were grown to 60% confluency and then treated with following compounds S006-1709, S006-1710, 5006-1711, S006-1713 and; S006-1714 at concentrations ranging from 10^−10 M to 10^−6M for 24 hrs. After treatment media was removed and 10 mM MTT was added solution in phenol red free DMEM media. After an incubation of 4 hrs the MTT solution was removed. Blue colored crystals were formed which were dissolved in DMSO and absorbance was read on ELISA plate reader at 570 nm wavelength.

[2] = system: ovariectomized immature female rats; test: Estrogenicity, uterine fresh weight in ovariectomized immature female rats; type: in vivo, rat; conditions: 10 mg/Kg oral
Description: (§2) 21 day old immature female rats (25-30 grams) were ovariectomized and given 7 days post-operative rest. Thereafter they were treated orally with the test agent (10 mg/Kg body weight) or with vehicle or Ethynyl estradiol, the reference standard for three consecutive days. For anti-estrogenicity, other than the test chemical, ethynyl estradiol (0.01 mg/kg) was given at 15 minutes interval before the test chemical. Autopsy was done 24 h after last treatment and uterine fresh weight was taken.

[3] = system: ovariectomized immature female rats; test: Anti-estrogenicity, uterine fresh weight with ethynyl estradiol co-treatment; type: in vivo, rat; conditions: 10 mg/Kg oral plus ethynyl estradiol 0.01 mg/kg
Description: as §2

[4] = system: Immature 21 d old female SD rat; test: In vivo efficacy, BMD in immature female SD rats
Description: Immature 21 d old female SD rat model was chosen, animals were randomized into four groups and treated with a daily dose of test agent or vehicle for one month and autopsied on day 31.
[…], the animals were shifted to metabolic cage for acclaimatization for 24 h with food and water. Post acclaimatization animals were further left in metabolic cage for 24 h with water but no food. Blood and urine samples were collected after 24 h. Various biochemical parameters like serum calcium, serum phosphorus, serum osteocalcin, serum alkaline phosphatase (ALP) were evaluated. The animals were autopsied on day 31 and lumbar vertebrae, femur and tibia bones were isolated, cleaned and fixed in 70% ethanol in saline and stored at 4° C. until BMD measurement. Initial and final body weight and uterine weight at autopsy were recorded. BMD measurements of region of interest (lumbar: global, L1-L4; femur: global, neck and mid-shaft; tibia: global, proximal and tibio-fibula junction point) was performed using a bone densitometer (Model 4500 Elite, Hologic) fitted with commercially available software (QDR 4500 ACCLAIM series) for a fan-beam DXA system that permits determination of bone densitometry and measurement of body composition in small animals in vivo.

[5] = Pharmacokinetic studies in Sprague Dawley rats; type: in vivo; conditions: rat, plasma, SD rats, oral dose of 5 mg/kg
Description: In-vivo pharmacokinetic parameters were generated in Sprague Dawley rats at a dose of 5 mg/kg by oral route of administration. The blood samples were drawn at 0.25, 0.5, 0.75, 1.0, 1.5, 2.0, 2.5, 4.0, 6, 8, 10, 12, 18, 24, 28, 36 and 48 hours, processed and analyzed by Liquid Chromatography-Mass Spectrometry (LC-MS). Plasma concentration at different time points were plotted to give Plasma Concentration Time Profile and the data was fitted non-compartmentally using Win NonLin 5.1 version software and the estimates of pharmacokinetic parameters were derived with SD mean values.

Calvarial osteoblasts = test: Alkaline phosphatase (ALP) activity for osteoblast differentiation, calvarial osteoblasts; type: cell-based, rat; conditions: calvarial osteoblasts, 48 h, 10^−12M to 10^−6M
Description: as §1
70 to 80% confluent Calvarial osteoblasts were treated with μM S006-1709 for 48 h in the presence of ascorbate and glycerophosphate. At the end of incubation period, total ALP activity was measured with a method using p-nitrophenylphosphate (PNPP) as substrate. The reaction mixture contained diethanolamine buffer (1 mol/L, pH 9.8), 0.5 mmol/L MgCl2.6H2O, and 10 mmol/L PNPP. ALP activity was measured by taking OD of the amount of colored product formed by the dephosphorylation of PNPP at 405 nm. […] In addition, the effect of S006-1709 on mineralization of calvarial osteoblasts was studied.
We then studied its effect in osteoblast differentiation in both calvarial and bone marrow osteoblasts. Confluent calvarial osteoblasts (70 to 80%) were treated with S006-1710 for 48 h in the presence of ascorbate and glycerophosphate at concentrations ranging from 10^−16M to 10^−6M. At the end of incubation period, total ALP activity was measured with the same method used previously using p-nitrophenylphosphate (PNPP) as substrate.
70 to 80% confluent Calvarial osteoblasts were treated with S007-1351 for 48 h in the presence of ascorbate and glycerophosphate. At the end of incubation period, total ALP activity was measured with a method using p-nitrophenylphosphate (PNPP) as substrate. The reaction mixture contained diethanolamine buffer (1 mol/L, pH 9.8), 0.5 mmol/L MgCl2.6H2O, and 10 mmol/L PNPP. ALP activity was measured by taking OD of the amount of colored product formed by the dephosphorylation of PNPP at 405 nm.
70 to 80% confluent calvarial osteoblasts were treated with S007-1352 for 48 h in the presence of ascorbate and glycerophosphate at concentrations ranging from 10^−12M to 10^−6 M. At the end of incubation period, total ALP activity was measured with the same method used previously using p-nitrophenylphosphate (PNPP) as substrate.

3T3-L1 cells = test: Anti-adipogenic effect (Oil Red O) in 3T3-L1 cells; type: cell-based, mouse
Description: The best characterized model of adipogenesis in vitro is the 3T3-L1 cell line, a substrain of Swiss 3T3 mouse cell line. 3T3-L1 cells propagated under normal conditions have a fibroblastic phenotype. However, when treated with a combination of dexamethasone, isobutylmethylxanthine (IBMX or MIX) and insulin, 3T3-L1 cells adopt a rounded phenotype and within 5 days begin to accumulate lipids intracellularly in the form of lipid droplets.
3T3-L1 cells were plated in 48-well plates 40,000 cells/well. The cells were incubated in DMEM containing fetal calf serum for 2 days until the cells become confluent. The cells were then incubated with Adipogenesis initiation media which contains DMEM with 10% FCS, IBMX and dexamethasone for 48 hrs at 37° C., 5% CO2. After two days the media was replaced with Adipogenesis Progression media which contains DMEM/10% FCS and insulin for 48 hrs at 37° C., 5% CO2, Media was again changed gently to Adipogenesis maintenance media for 48 hrs at 37° C., 5% CO2. At the end of eight days of experiment the cells were fixed and then stained with Oil Red O which stains lipid droplets. The dye was extracted and extracted dye was transferred to a 96-well plate and absorbance of extracted Oil Red O was measured in a plate reader at 490 nm.
Compounds S006-1709, S007-1351-53, S007-1495 and S007-1500 were tested in vitro in 3T3L1 cell line at two concentrations 10^−10 M and 10^−12M. FIG. 8A depicts the adipocytes formed at the end of the 8 day experiment. The fixed cells were stained with Oil Red O. The dye was then extracted and quantified.

[6] = 10 mg/kg daily, one month, vehicle = 100
[7] = 3T3L1, both concentrations (10^−10 M and 10^−12M)

## Oc1ccc2c(c1)OCC1c3ccccc3OC21 (stereo not drawn) [Compound S006-1709, 6a,11a-Dihydro-6H-benzo[4,5]furo[3,2-c]chromen-3-ol]
[1]
  effect on osteoblast proliferation (MTT): no effect
[2]; three consecutive days, vehicle 16.46
  Estrogenic Activity (uterine fresh weight): 15.8
[3]
  Anti-Estrogenic Activity (uterine fresh weight): 96.86
[3]; relative to ethynyl estradiol
  Anti-Estrogenic Activity, % (second line of cell): −1.5%^
[4]; [6]
  Change in BMD, Femur Global: 138.75
  Change in BMD, Femur Neck: 141
  Change in BMD, Femur Shaft: 167
  Change in BMD, Lumber Vertebra Global: 120
  Change in BMD, Lumber Vertebra LV1: 126
  Change in BMD, Lumber Vertebra LV2: 124
  Change in BMD, Lumber Vertebra LV3: 90.3
  Change in BMD, Lumber Vertebra LV4: 125
  Change in BMD, Tibia Global: 133
  Change in BMD, Tibia Head: 115
  Change in BMD, Tibia TFSP: 124
[5]; read-out: Area under curve (AUC)
  AUC: 0.0321 ± 0.012 µg·h/mL
[5]; read-out: Maximum plasma concentration (Cmax)
  Cmax: 0.0175 ± 0.00176 µg/mL
[5]; read-out: elimination half life (T1/2) (converted)
  half-life: 2.5 h
[5]; read-out: mean residence time (MRT)
  MRT: 3.5 h
[5]; read-out: time to achieve maximum plasma concentration (tmax) (converted)
  Tmax: 0.25 h
other
  melting point: 148 to 152 °C

## O=c1c(-c2ccccc2O)coc2c(O)c(O)ccc12 [Compound S007-1351, 7,8-Dihydroxy-3-(2-hydroxy-phenyl)-chromen-4-one]
Calvarial osteoblasts
  osteoblast ALP activity vs vehicle control: significant increase
3T3-L1 cells; [7]
  effect on adipogenesis: inducers of adipogenesis
other
  melting point: 240 to 242 °C

## COc1ccccc1-c1coc2c(O)c(O)ccc2c1=O [Compound S007-1352, 7,8-Dihydroxy-3-(2-methoxy-phenyl)-chromen-4-one]
Calvarial osteoblasts
  osteoblast ALP activity vs vehicle control: significant increase
3T3-L1 cells; [7]
  effect on adipogenesis: inducers of adipogenesis
other
  melting point: 220 to 222 °C

## C=CCOc1ccc2c(c1C)OCC1c3ccccc3OC21 (stereo not drawn) [Compound S007-1500, 3-Allyloxy-4-methyl-6a,11a-dihydro-6H-benzo[4,5]furo[3,2-c]chromene]
Calvarial osteoblasts
  osteoblast ALP activity vs vehicle control: stimulated ALP activity
Calvarial osteoblasts; listed as S-007-1500
  osteoblast ALP activity vs vehicle control: showed stimulation in ALP activity
3T3-L1 cells; 3T3L1, at different concentrations (10^−10 M and 10^−12M tested)
  effect on adipogenesis: significantly inhibited adipogenesis
[2]
  estrogenicity (in words): devoid of any estrogenicity
[4]; 1 mg/kg daily, one month
  BMD % increase versus vehicle control, FEMUR Global: +27%
  BMD % increase versus vehicle control, FEMUR Mid-shaft: +35%
  BMD % increase versus vehicle control, FEMUR Neck: +16%
  BMD % increase versus vehicle control, LUMBER VERTEBRAE Global: +13%
  BMD % increase versus vehicle control, LUMBER VERTEBRAE L-1: +6%
  BMD % increase versus vehicle control, LUMBER VERTEBRAE L-2: +21%
  BMD % increase versus vehicle control, LUMBER VERTEBRAE L-3: +5.5%
  BMD % increase versus vehicle control, LUMBER VERTEBRAE L-4: −8.5%
  BMD % increase versus vehicle control, TIBIA Global: +35%
  BMD % increase versus vehicle control, TIBIA Proximal: +16.5%
  BMD % increase versus vehicle control, TIBIA TFSP: +70%
[4]; 5 mg/kg daily, one month
  BMD % increase versus vehicle control, FEMUR Global: +25%
  BMD % increase versus vehicle control, FEMUR Mid-shaft: +30%
  BMD % increase versus vehicle control, FEMUR Neck: +26%
  BMD % increase versus vehicle control, LUMBER VERTEBRAE Global: +17%
  BMD % increase versus vehicle control, LUMBER VERTEBRAE L-1: +7%
  BMD % increase versus vehicle control, LUMBER VERTEBRAE L-2: +14.5%
  BMD % increase versus vehicle control, LUMBER VERTEBRAE L-3: +25%
  BMD % increase versus vehicle control, LUMBER VERTEBRAE L-4: +14%
  BMD % increase versus vehicle control, TIBIA Global: +37%
  BMD % increase versus vehicle control, TIBIA Proximal: +33%
  BMD % increase versus vehicle control, TIBIA TFSP: +69%
[4]; both doses of 1.0 and 5.0 mg/kg
  BMD in Femur and Tibia (in words): significant increase
